Test results taken from ChEMBL document CHEMBL1201862, “PubChem BioAssay data set” (2004).
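Tested at 5 concentrations; 48 h exposure; 96-well plates; endpoints linearly interpolated, else capped at highest concentration. GI50 is the concentration that inhibits growth by half.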 Calls of active or inactive are those of the source. Cut-off read from the data, not from the text of the source: active = GI50 up to about 1.1 µM and inactive = higher.

Experiments:
Assay in all cases: growth of human tumour cells (NCI), 48 h
EKVX = system: EKVX
RXF 393 = system: RXF 393
COLO 205 = system: COLO 205
ACHN = system: ACHN
UACC-257 = system: UACC-257
A498 = system: A498
OVCAR-3 = system: OVCAR-3
OVCAR-5 = system: OVCAR-5
NCI-H226 = system: NCI-H226
HOP-92 = system: HOP-92
MDA-N = system: MDA-N
M14 = system: M14
OVCAR-4 = system: OVCAR-4
KM12 = system: KM12
NCI-H460 = system: NCI-H460
SK-MEL-2 = system: SK-MEL-2
U-251 = system: U-251
SR = system: SR
A549 = system: A549
SK-OV-3 = system: SK-OV-3
SNB-19 = system: SNB-19
MOLT-4 = system: MOLT-4
MDA-MB-231 = system: MDA-MB-231
MDA-MB-435 = system: MDA-MB-435
PC-3 = system: PC-3
T47D = system: T47D
NCI-H23 = system: NCI-H23
SW-620 = system: SW-620
SF-295 = system: SF-295
TK-10 = system: TK-10
IGROV-1 = system: IGROV-1
UACC-62 = system: UACC-62
LOX IMVI = system: LOX IMVI
CCRF-CEM = system: CCRF-CEM
NCI-H522 = system: NCI-H522
MCF7 = system: MCF7
RPMI-8226 = system: RPMI-8226
SF-539 = system: SF-539
HCC 2998 = system: HCC 2998
786-0 = system: 786-0
CAKI-1 = system: CAKI-1
HCT-15 = system: HCT-15
K562 = system: K562
HT-29 = system: HT-29
HOP-62 = system: HOP-62
SN12C = system: SN12C
SK-MEL-5 = system: SK-MEL-5
OVCAR-8 = system: OVCAR-8
UO-31 = system: UO-31
Malme-3M = system: Malme-3M
BT-549 = system: BT-549
HCT-116 = system: HCT-116
NCI/ADR-RES = system: NCI/ADR-RES
HL-60 = system: HL-60
SK-MEL-28 = system: SK-MEL-28
SNB-75 = system: SNB-75
DU-145 = system: DU-145
SF-268 = system: SF-268
Hs-578T = system: Hs-578T

Measured: GI50

CCOC(=O)Nn1cnnc1C
> 100 µM: HCT-15
inactive: EKVX > 100 µM | RXF 393 > 100 µM | COLO 205 > 100 µM | ACHN > 100 µM | UACC-257 > 100 µM | A498 > 100 µM | OVCAR-3 > 100 µM | OVCAR-5 > 100 µM | NCI-H226 > 100 µM | HOP-92 > 100 µM | MDA-N > 100 µM | M14 > 100 µM | OVCAR-4 > 100 µM | KM12 > 100 µM | NCI-H460 > 100 µM | SK-MEL-2 > 100 µM | U-251 > 100 µM | SR > 100 µM | A549 > 100 µM | SK-OV-3 > 100 µM | SNB-19 > 100 µM | MOLT-4 > 100 µM | MDA-MB-231 > 100 µM | MDA-MB-435 > 100 µM | PC-3 > 100 µM | T47D > 100 µM | NCI-H23 > 100 µM | SW-620 > 100 µM | SF-295 > 100 µM | TK-10 > 100 µM | IGROV-1 > 100 µM | UACC-62 > 100 µM | LOX IMVI > 100 µM | CCRF-CEM > 100 µM | NCI-H522 > 100 µM | MCF7 > 100 µM | RPMI-8226 > 100 µM | SF-539 > 100 µM | HCC 2998 > 100 µM | 786-0 > 100 µM | CAKI-1 > 100 µM | K562 > 100 µM | HT-29 > 100 µM | HOP-62 > 100 µM | SN12C > 100 µM | SK-MEL-5 > 100 µM | OVCAR-8 > 100 µM | UO-31 > 100 µM | Malme-3M > 100 µM | BT-549 > 100 µM | HCT-116 > 100 µM | NCI/ADR-RES > 100 µM

C[C@H]1[C@H](N2CCCC2)O[Si](C(C)(C)C)(C(C)(C)C)[C@@H]1C
inactive: EKVX > 100 µM | COLO 205 > 100 µM | ACHN 46.8 µM | UACC-257 > 100 µM | HL-60 13.7 µM | A498 > 100 µM | SK-MEL-28 > 100 µM | OVCAR-3 > 100 µM | OVCAR-5 > 100 µM | NCI-H226 > 100 µM | MDA-N > 100 µM | M14 > 100 µM | OVCAR-4 > 100 µM | KM12 > 100 µM | SK-MEL-2 > 100 µM | U-251 > 100 µM | A549 > 100 µM | SK-OV-3 > 100 µM | MOLT-4 > 100 µM | MDA-MB-231 > 100 µM | MDA-MB-435 > 100 µM | PC-3 99.5 µM | T47D > 100 µM | NCI-H23 > 100 µM | SW-620 > 100 µM | SF-295 > 100 µM | TK-10 > 100 µM | IGROV-1 > 100 µM | UACC-62 > 100 µM | LOX IMVI > 100 µM | CCRF-CEM 36.2 µM | NCI-H522 > 100 µM | MCF7 > 100 µM | RPMI-8226 > 100 µM | SF-539 > 100 µM | SNB-75 74.6 µM | HCC 2998 > 100 µM | 786-0 > 100 µM | CAKI-1 > 100 µM | K562 97.3 µM | HT-29 > 100 µM | HOP-62 > 100 µM | SN12C > 100 µM | SK-MEL-5 > 100 µM | OVCAR-8 > 100 µM | UO-31 > 100 µM | Malme-3M 59.2 µM | BT-549 > 100 µM | HCT-116 > 100 µM | NCI/ADR-RES > 100 µM
active: HOP-92 < 0.01 µM | SNB-19 0.964 µM
> 100 µM: HCT-15

O=C1CC(c2ccccc2)Oc2ccccc21 (stereo not drawn) [FLAVANONE]
inactive: EKVX 38.9 µM | RXF 393 36.2 µM | COLO 205 33.6 µM | ACHN 47.6 µM | UACC-257 77.3 µM | HL-60 21.5 µM | A498 30.3 µM | SK-MEL-28 > 100 µM | NCI-H226 32.4 µM | HOP-92 24.9 µM | M14 51.9 µM | OVCAR-4 66.1 µM | KM12 35.7 µM | DU-145 67.6 µM | NCI-H460 32.1 µM | SK-MEL-2 30.1 µM | U-251 38.6 µM | SR 24 µM | SK-OV-3 84.1 µM | SNB-19 23.1 µM | MOLT-4 13.7 µM | MDA-MB-231 32.2 µM | MDA-MB-435 31.9 µM | PC-3 38.5 µM | SF-268 64.7 µM | T47D 35.8 µM | NCI-H23 15.9 µM | SW-620 > 10 µM | SF-295 58.1 µM | TK-10 76.4 µM | IGROV-1 23.4 µM | UACC-62 51.3 µM | LOX IMVI 26.5 µM | CCRF-CEM 24.2 µM | MCF7 37.8 µM | RPMI-8226 17.1 µM | SF-539 21.8 µM | SNB-75 63.4 µM | HCC 2998 76.9 µM | 786-0 29.3 µM | Hs-578T 67.3 µM | CAKI-1 48.3 µM | K562 12.6 µM | HT-29 28 µM | HOP-62 48.4 µM | SK-MEL-5 25.1 µM | OVCAR-8 48.9 µM | UO-31 47.6 µM | BT-549 15.4 µM | HCT-116 30.3 µM | NCI/ADR-RES 34.9 µM
26.1 µM: HCT-15
